# Reference: PubChem BioAssay (NCI)
#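 Cultured in 96-well plates, cells were exposed to test compound for 48 hours across five concentrations. At the GI50, growth is halved. TGI is the concentration that stops growth completely.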
# Tests used:
# Assay in all cases: NCI anticancer screen, dose series, 48 h
# HOP-92 NSCLC = test system: HOP-92 NSCLC
# KM20L2 colon = test system: KM20L2 colon
# 786-0 renal = test system: 786-0 renal
# SN12C renal = test system: SN12C renal
# SF-539 CNS = test system: SF-539 CNS
# A498 renal = test system: A498 renal
# UACC-62 melanoma = test system: UACC-62 melanoma
# HL-60(TB) leukemia = test system: HL-60(TB) leukemia
# HCT-116 colon = test system: HCT-116 colon
# KM12 colon = test system: KM12 colon
# OVCAR-3 ovarian = test system: OVCAR-3 ovarian
# SK-MEL-5 melanoma = test system: SK-MEL-5 melanoma
# LXFL 529 NSCLC = test system: LXFL 529 NSCLC
# SK-OV-3 ovarian = test system: SK-OV-3 ovarian
# OVCAR-8 ovarian = test system: OVCAR-8 ovarian
# SK-MEL-2 melanoma = test system: SK-MEL-2 melanoma
# LOX IMVI melanoma = test system: LOX IMVI melanoma
# SNB-78 CNS = test system: SNB-78 CNS
# SR leukemia = test system: SR leukemia
# XF 498 CNS = test system: XF 498 CNS
# ACHN renal = test system: ACHN renal
# MOLT-4 leukemia = test system: MOLT-4 leukemia
# IGROV1 ovarian = test system: IGROV1 ovarian
# OVCAR-5 ovarian = test system: OVCAR-5 ovarian
# K-562 leukemia = test system: K-562 leukemia
# SK-MEL-28 melanoma = test system: SK-MEL-28 melanoma
# HOP-62 NSCLC = test system: HOP-62 NSCLC
# CAKI-1 renal = test system: CAKI-1 renal
# SNB-75 CNS = test system: SNB-75 CNS
# SW-620 colon = test system: SW-620 colon
# UACC-257 melanoma = test system: UACC-257 melanoma
# CCRF-CEM leukemia = test system: CCRF-CEM leukemia
# SF-268 CNS = test system: SF-268 CNS
# U251 CNS = test system: U251 CNS
# NCI-H460 lung = test system: NCI-H460 lung
# A549 NSCLC = test system: A549 NSCLC
# DLD-1 colon = test system: DLD-1 colon
# EKVX NSCLC = test system: EKVX NSCLC
# TK-10 renal = test system: TK-10 renal
# HCC-2998 colon = test system: HCC-2998 colon
# COLO 205 colon = test system: COLO 205 colon
# M14 melanoma = test system: M14 melanoma
# SF-295 CNS = test system: SF-295 CNS
# DMS 273 small cell lung = test system: DMS 273 small cell lung
# HT29 colon = test system: HT29 colon
# HOP-18 NSCLC = test system: HOP-18 NSCLC
# M19-MEL melanoma = test system: M19-MEL melanoma
# MALME-3M melanoma = test system: MALME-3M melanoma
# UO-31 renal = test system: UO-31 renal
# NCI-H522 lung = test system: NCI-H522 lung
# NCI-H23 lung = test system: NCI-H23 lung
# OVCAR-4 ovarian = test system: OVCAR-4 ovarian
# DMS 114 small cell lung = test system: DMS 114 small cell lung
# HCT-15 colon = test system: HCT-15 colon
# SNB-19 CNS = test system: SNB-19 CNS
# RXF 393 renal = test system: RXF 393 renal
# NCI-H226 lung = test system: NCI-H226 lung
smiles,measurement,setting,value
COc1ccc(/C=C/C(=O)C(C)C)cc1,TGI,HOP-92 NSCLC,> 100000 nM
same,TGI,KM20L2 colon,64300 nM
same,TGI,786-0 renal,> 100000 nM
same,TGI,SN12C renal,> 100000 nM
same,TGI,SF-539 CNS,> 100000 nM
same,TGI,A498 renal,> 100000 nM
same,TGI,UACC-62 melanoma,> 100000 nM
same,TGI,HL-60(TB) leukemia,59200 nM
same,TGI,HCT-116 colon,> 100000 nM
same,TGI,KM12 colon,98000 nM
same,TGI,OVCAR-3 ovarian,61400 nM
same,TGI,SK-MEL-5 melanoma,> 100000 nM
same,TGI,LXFL 529 NSCLC,54900 nM
same,TGI,SK-OV-3 ovarian,90600 nM
same,TGI,OVCAR-8 ovarian,> 100000 nM
same,TGI,SK-MEL-2 melanoma,73800 nM
same,TGI,LOX IMVI melanoma,> 100000 nM
same,TGI,SNB-78 CNS,46700 nM
same,TGI,SR leukemia,> 100000 nM
same,TGI,XF 498 CNS,> 100000 nM
same,TGI,ACHN renal,> 100000 nM
same,TGI,MOLT-4 leukemia,> 100000 nM
same,TGI,IGROV1 ovarian,> 100000 nM
same,TGI,OVCAR-5 ovarian,> 100000 nM
same,TGI,K-562 leukemia,> 100000 nM
same,TGI,SK-MEL-28 melanoma,> 100000 nM
same,TGI,HOP-62 NSCLC,> 100000 nM
same,TGI,CAKI-1 renal,> 100000 nM
same,TGI,SNB-75 CNS,> 100000 nM
same,TGI,SW-620 colon,> 100000 nM
same,TGI,UACC-257 melanoma,> 100000 nM
same,TGI,CCRF-CEM leukemia,> 100000 nM
same,TGI,SF-268 CNS,> 100000 nM
same,TGI,U251 CNS,> 100000 nM
same,TGI,NCI-H460 lung,> 100000 nM
same,TGI,A549 NSCLC,> 100000 nM
same,TGI,DLD-1 colon,> 100000 nM
same,TGI,EKVX NSCLC,> 100000 nM
same,TGI,TK-10 renal,> 100000 nM
same,TGI,HCC-2998 colon,> 100000 nM
same,TGI,COLO 205 colon,> 100000 nM
same,TGI,M14 melanoma,> 100000 nM
same,TGI,SF-295 CNS,> 100000 nM
same,TGI,DMS 273 small cell lung,> 100000 nM
same,TGI,HT29 colon,79600 nM
same,TGI,HOP-18 NSCLC,> 100000 nM
same,TGI,M19-MEL melanoma,> 100000 nM
same,TGI,MALME-3M melanoma,> 100000 nM
same,TGI,UO-31 renal,> 100000 nM
same,TGI,NCI-H522 lung,41700 nM
same,TGI,NCI-H23 lung,> 100000 nM
same,TGI,OVCAR-4 ovarian,> 100000 nM
same,TGI,DMS 114 small cell lung,43000 nM
same,TGI,HCT-15 colon,> 100000 nM
same,TGI,SNB-19 CNS,> 100000 nM
CCC[CH2][Sn]([CH2]CCC)([O]C(=O)Cc1ccc(F)cc1)[O]C(=O)Cc1ccc(F)cc1,GI50,HOP-92 NSCLC,1020 nM
same,TGI,HOP-92 NSCLC,2200 nM
same,GI50,KM20L2 colon,1880 nM
same,TGI,KM20L2 colon,4690 nM
same,GI50,786-0 renal,505 nM
same,TGI,786-0 renal,1720 nM
same,GI50,SN12C renal,856 nM
same,TGI,SN12C renal,2100 nM
same,GI50,SF-539 CNS,1060 nM
same,TGI,SF-539 CNS,2280 nM
same,GI50,A498 renal,573 nM
same,TGI,A498 renal,1860 nM
same,GI50,UACC-62 melanoma,629 nM
same,TGI,UACC-62 melanoma,1890 nM
same,GI50,HCT-116 colon,657 nM
same,TGI,HCT-116 colon,1970 nM
same,GI50,KM12 colon,1710 nM
same,TGI,KM12 colon,4030 nM
same,GI50,OVCAR-3 ovarian,1270 nM
same,TGI,OVCAR-3 ovarian,2540 nM
same,GI50,SK-MEL-5 melanoma,1080 nM
same,TGI,SK-MEL-5 melanoma,2270 nM
same,GI50,LXFL 529 NSCLC,47.6 nM
same,TGI,LXFL 529 NSCLC,202 nM
same,GI50,SK-OV-3 ovarian,2930 nM
same,TGI,SK-OV-3 ovarian,7330 nM
same,GI50,OVCAR-8 ovarian,917 nM
same,TGI,OVCAR-8 ovarian,2130 nM
same,GI50,SK-MEL-2 melanoma,355 nM
same,TGI,SK-MEL-2 melanoma,1480 nM
same,GI50,LOX IMVI melanoma,279 nM
same,TGI,LOX IMVI melanoma,1270 nM
same,GI50,SNB-78 CNS,284 nM
same,TGI,SNB-78 CNS,1570 nM
same,GI50,SR leukemia,196 nM
same,TGI,SR leukemia,1860 nM
same,GI50,XF 498 CNS,1080 nM
same,TGI,XF 498 CNS,2290 nM
same,GI50,ACHN renal,756 nM
same,TGI,ACHN renal,2010 nM
same,GI50,MOLT-4 leukemia,124 nM
same,TGI,MOLT-4 leukemia,796 nM
same,GI50,IGROV1 ovarian,1340 nM
same,TGI,IGROV1 ovarian,2790 nM
same,GI50,OVCAR-5 ovarian,1790 nM
same,TGI,OVCAR-5 ovarian,3180 nM
same,GI50,K-562 leukemia,53.5 nM
same,TGI,K-562 leukemia,580 nM
same,GI50,SK-MEL-28 melanoma,396 nM
same,TGI,SK-MEL-28 melanoma,1680 nM
same,GI50,HOP-62 NSCLC,2380 nM
same,TGI,HOP-62 NSCLC,4080 nM
same,GI50,SNB-75 CNS,705 nM
same,TGI,SNB-75 CNS,2100 nM
same,GI50,SW-620 colon,206 nM
same,TGI,SW-620 colon,1130 nM
same,GI50,UACC-257 melanoma,603 nM
same,TGI,UACC-257 melanoma,1990 nM
same,GI50,CCRF-CEM leukemia,36.2 nM
same,TGI,CCRF-CEM leukemia,11900 nM
same,GI50,SF-268 CNS,450 nM
same,TGI,SF-268 CNS,1750 nM
same,GI50,U251 CNS,361 nM
same,TGI,U251 CNS,1540 nM
same,GI50,NCI-H460 lung,2270 nM
same,TGI,NCI-H460 lung,5850 nM
same,GI50,A549 NSCLC,7000 nM
same,TGI,A549 NSCLC,19900 nM
same,GI50,DLD-1 colon,291 nM
same,TGI,DLD-1 colon,1420 nM
same,GI50,RXF 393 renal,145 nM
same,TGI,RXF 393 renal,695 nM
same,GI50,EKVX NSCLC,777 nM
same,TGI,EKVX NSCLC,2090 nM
same,GI50,TK-10 renal,1030 nM
same,TGI,TK-10 renal,2210 nM
same,GI50,HCC-2998 colon,1230 nM
same,TGI,HCC-2998 colon,2520 nM
same,GI50,NCI-H226 lung,443 nM
same,TGI,NCI-H226 lung,1850 nM
same,GI50,COLO 205 colon,679 nM
same,TGI,COLO 205 colon,2000 nM
same,GI50,M14 melanoma,1060 nM
same,TGI,M14 melanoma,2260 nM
same,GI50,SF-295 CNS,1130 nM
same,TGI,SF-295 CNS,2340 nM
same,GI50,DMS 273 small cell lung,1040 nM
same,TGI,DMS 273 small cell lung,2220 nM
same,GI50,HT29 colon,1610 nM
same,TGI,HT29 colon,3680 nM
same,GI50,HOP-18 NSCLC,1670 nM
same,TGI,HOP-18 NSCLC,3050 nM
same,GI50,M19-MEL melanoma,295 nM
same,TGI,M19-MEL melanoma,1650 nM
same,GI50,MALME-3M melanoma,240 nM
same,TGI,MALME-3M melanoma,1350 nM
same,GI50,UO-31 renal,1430 nM
same,TGI,UO-31 renal,2750 nM
same,GI50,NCI-H522 lung,23.2 nM
same,TGI,NCI-H522 lung,149 nM
same,GI50,NCI-H23 lung,176 nM
same,TGI,NCI-H23 lung,1140 nM
same,GI50,OVCAR-4 ovarian,1680 nM
same,TGI,OVCAR-4 ovarian,3130 nM
same,GI50,DMS 114 small cell lung,140 nM
same,TGI,DMS 114 small cell lung,393 nM
same,GI50,HCT-15 colon,1040 nM
same,TGI,HCT-15 colon,2230 nM
same,GI50,SNB-19 CNS,1360 nM
same,TGI,SNB-19 CNS,2650 nM
